How the values were obtained:
[1] = molecular target: T1, Translocator protein (TSPO) (Rattus norvegicus, UniProt P16257); assay: In vivo [^18F]-PBR111 PET imaging, Vt by two-compartment model with metabolite-corrected plasma input; parameters: Tissue distribution volume (Vt): unit not given here
T1 construct: from tissue; host or cells: brain of living male Wistar rats (control and kainic acid-induced status epilepticus)
Text: Seven days post-SE, rats were anaesthetised for PET imaging using isoflurane (induction 5%, maintenance 1% to 3%, in medical oxygen), and body temperature was maintained using a feedback-regulated heating pad. A catheter was implanted in the femoral artery as described above. The animal was then placed into the field-of-view of the INVEON PET/CT scanner (Siemens Medical Solutions, Knoxville, TN, USA), and physiological parameters (heart rate, respiration and body temperature) were monitored (BioVet, m2m Imaging Corp., Cleveland, OH, USA) for the entire scanning period. To avoid movement and fix tubing, the animal was restrained in the supine position using a webbed sock and adhesive tape.
The PET scan was started 20 to 30 s before the 1-min infusion of radiotracer (ID = 12.5 to 29.0 MBq, 0.05 to 0.29 nmol, max 0.4 ml in volume, as described above) for the duration of 60 min. Femoral arterial blood samples (approximately 50 μl/sample) were taken at 15-s intervals for 4 min after the commencement of the PET scan, and then at 10-, 20-, 30- and 50-min post-injections. In the last sample (100 μl), metabolites were analysed to confirm the standard metabolite correction and to calculate the partition coefficient at 50 min. Heparinised saline (20 IU) was administered after blood sampling to maintain the blood volume and to prevent hypotension. Plasma samples were collected after 10-min centrifugation of whole blood at 3,000 rpm. Whole blood and plasma samples were counted in a Wallac γ-counter, decay-corrected and weight-normalised. At the end of the PET scanning, a 10-min 70 kV/500 μA computed tomography (CT) scan was performed on each animal (for co-registration with PET data and magnetic resonance imaging (MRI) atlas).
Coincidence events were acquired into list mode files and then histogrammed into […] consecutive frames of variable duration (8 × 15 s, 6 × 20 s, 6 × 60 s, 3 × 180 s, and 5 × 500 s). The volumes were then reconstructed with an iterative algorithm 3D-OSEM/FastMap. PET images (128 × 128 × 159) were co-registered with CT scans and mapped to a MRI-based rat brain atlas. Left and right time activity curves (TACs) were derived from eight VOIs such as the frontal cortex, striatum, parietal cortex, hippocampus, thalamus, amygdala, occipital cortex and colliculi using the Anatomist package ( http://brainvisa.info). Also, the hypothalamus, brainstem, pons and cerebellum were extracted from the reconstructed images. Data were then converted into activity concentration (kBq/ml) using cross calibration factors.
Firstly, a two-compartment model was used to assess the ‘apparent’ volume of distribution (Vt), or the ‘volume’ of the tracer would occupy if the tracers were to adopt the same concentration in the tissue as in the blood. For each VOI, Vt was calculated using their TACs, the metabolite-corrected plasma curve as input function and the whole blood curve to model the kinetics of the vascular fraction (5%) in the cerebral tissue.

[2] = Stability of [^18F]-PBR111 in whole rat blood (1 h on the bench); type: in vitro ADME; conditions: samples from 2- and 5-min post-injection left on the bench for 1 h vs processed immediately
Protocol: Animals were injected intravenously with [^18F]-PBR111 (injected dose (ID) = 14.1 to 38.7 MBq). The tracer was infused via the dorsal penile vein (maximum volume of 0.3 ml) using a Harvard Apparatus Pump 11 plus syringe pump (Holliston, MA, USA) over a constant time interval of 1 min. The line was flushed with saline, and the remaining radioactivity was measured in the line and syringe. Different ranges of tracer mass (0.07 to 4.00 nmol) were injected to evaluate whether this would affect the tracer metabolism. Arterial blood samples (0.2 ml) were withdrawn via a cannula implanted in the femoral artery from 2 to 60 min after the start of injection. The whole blood was then centrifuged at 3,000 rpm for 10 min, and the plasma was collected. Plasma samples (0.1 ml) were weighed and the radioactivity was measured in a Wallac γ-counter. At 2- and 5-min post-injections, the samples were taken in duplicate. One sample was left on the bench for 1 h, and the other was processed immediately to evaluate the stability in whole rat blood.

T1 sequence (P16257 whole entry): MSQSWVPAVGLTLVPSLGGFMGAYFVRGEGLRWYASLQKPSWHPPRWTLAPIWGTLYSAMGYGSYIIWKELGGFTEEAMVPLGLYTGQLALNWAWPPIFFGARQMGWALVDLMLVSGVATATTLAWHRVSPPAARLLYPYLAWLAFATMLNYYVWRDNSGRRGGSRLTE

## CCN(CC)C(=O)Cc1c(-c2ccc(OCCC[18F])cc2)nc2ccc(Cl)cn12 [[^18F]-PBR111]
[1]; Amygdala, Left
  Increase (%) of Vt, KASE vs control: 288%
[1]; Amygdala, Left, Control (N = 4)
  Tissue distribution volume (Vt): 5.3 ± 0.8
[1]; Amygdala, Left, KASE (N = 4), 7 days post-SE
  Tissue distribution volume (Vt): 20.6 ± 2.8
[1]; Amygdala, Right
  Increase (%) of Vt, KASE vs control: 284%
[1]; Amygdala, Right, Control (N = 4)
  Tissue distribution volume (Vt): 6.1 ± 0.7
[1]; Amygdala, Right, KASE (N = 4), 7 days post-SE
  Tissue distribution volume (Vt): 23.4 ± 4.8
[1]; Brainstem
  Increase (%) of Vt, KASE vs control: 41%
[1]; Brainstem, Control (N = 4)
  Tissue distribution volume (Vt): 4.7 ± 0.8
[1]; Brainstem, KASE (N = 4), 7 days post-SE
  Tissue distribution volume (Vt): 6.7 ± 1.0
[1]; Cerebellum
  Increase (%) of Vt, KASE vs control: 43%
[1]; Cerebellum, Control (N = 4)
  Tissue distribution volume (Vt): 7.5 ± 0.8
[1]; Cerebellum, KASE (N = 4), 7 days post-SE
  Tissue distribution volume (Vt): 10.6 ± 1.3
[1]; Colliculi, Left
  Increase (%) of Vt, KASE vs control: 44%
[1]; Colliculi, Left, Control (N = 4)
  Tissue distribution volume (Vt): 4.0 ± 1.0
[1]; Colliculi, Left, KASE (N = 4), 7 days post-SE
  Tissue distribution volume (Vt): 5.8 ± 1.1
[1]; Colliculi, Right
  Increase (%) of Vt, KASE vs control: 70%
[1]; Colliculi, Right, Control (N = 4)
  Tissue distribution volume (Vt): 4.1 ± 1.1
[1]; Colliculi, Right, KASE (N = 4), 7 days post-SE
  Tissue distribution volume (Vt): 6.9 ± 1.8
[1]; Frontal cortex, Left
  Increase (%) of Vt, KASE vs control: 108%
[1]; Frontal cortex, Left, Control (N = 4)
  Tissue distribution volume (Vt): 5.4 ± 1.0
[1]; Frontal cortex, Left, KASE (N = 4), 7 days post-SE
  Tissue distribution volume (Vt): 11.3 ± 2.4
[1]; Frontal cortex, Right
  Increase (%) of Vt, KASE vs control: 98%
[1]; Frontal cortex, Right, Control (N = 4)
  Tissue distribution volume (Vt): 5.7 ± 1.2
[1]; Frontal cortex, Right, KASE (N = 4), 7 days post-SE
  Tissue distribution volume (Vt): 11.2 ± 2.4
[1]; Hippocampus, Left
  Increase (%) of Vt, KASE vs control: 154%
[1]; Hippocampus, Left, Control (N = 4)
  Tissue distribution volume (Vt): 3.6 ± 0.5
[1]; Hippocampus, Left, KASE (N = 4), 7 days post-SE
  Tissue distribution volume (Vt): 9.1 ± 1.1
[1]; Hippocampus, Right
  Increase (%) of Vt, KASE vs control: 159%
[1]; Hippocampus, Right, Control (N = 4)
  Tissue distribution volume (Vt): 3.6 ± 0.4
[1]; Hippocampus, Right, KASE (N = 4), 7 days post-SE
  Tissue distribution volume (Vt): 9.4 ± 1.6
[1]; Hypothalamus
  Increase (%) of Vt, KASE vs control: 104%
[1]; Hypothalamus, Control (N = 4)
  Tissue distribution volume (Vt): 4.0 ± 0.7
[1]; Hypothalamus, KASE (N = 4), 7 days post-SE
  Tissue distribution volume (Vt): 8.2 ± 1.4
[1]; Occipital cortex, Left
  Increase (%) of Vt, KASE vs control: 53%
[1]; Occipital cortex, Left, Control (N = 4)
  Tissue distribution volume (Vt): 9.8 ± 3.4
[1]; Occipital cortex, Left, KASE (N = 4), 7 days post-SE
  Tissue distribution volume (Vt): 15.1 ± 3.5
[1]; Occipital cortex, Right
  Increase (%) of Vt, KASE vs control: 62%
[1]; Occipital cortex, Right, Control (N = 4)
  Tissue distribution volume (Vt): 9.3 ± 1.4
[1]; Occipital cortex, Right, KASE (N = 4), 7 days post-SE
  Tissue distribution volume (Vt): 15.0 ± 1.4
[1]; Parietal cortex, Left
  Increase (%) of Vt, KASE vs control: 110%
[1]; Parietal cortex, Left, Control (N = 4)
  Tissue distribution volume (Vt): 4.5 ± 0.6
[1]; Parietal cortex, Left, KASE (N = 4), 7 days post-SE
  Tissue distribution volume (Vt): 9.5 ± 1.1
[1]; Parietal cortex, Right
  Increase (%) of Vt, KASE vs control: 136%
[1]; Parietal cortex, Right, Control (N = 4)
  Tissue distribution volume (Vt): 4.9 ± 0.8
[1]; Parietal cortex, Right, KASE (N = 4), 7 days post-SE
  Tissue distribution volume (Vt): 11.6 ± 2.0
[1]; Pons
  Increase (%) of Vt, KASE vs control: 78%
[1]; Pons, Control (N = 4)
  Tissue distribution volume (Vt): 4.2 ± 0.9
[1]; Pons, KASE (N = 4), 7 days post-SE
  Tissue distribution volume (Vt): 7.5 ± 1.8
[1]; Striatum, Left
  Increase (%) of Vt, KASE vs control: 180%
[1]; Striatum, Left, Control (N = 4)
  Tissue distribution volume (Vt): 2.8 ± 0.6
[1]; Striatum, Left, KASE (N = 4), 7 days post-SE
  Tissue distribution volume (Vt): 8.0 ± 1.2
[1]; Striatum, Right
  Increase (%) of Vt, KASE vs control: 156%
[1]; Striatum, Right, Control (N = 4)
  Tissue distribution volume (Vt): 3.0 ± 0.5
[1]; Striatum, Right, KASE (N = 4), 7 days post-SE
  Tissue distribution volume (Vt): 7.8 ± 1.1
[1]; Thalamus, Left
  Increase (%) of Vt, KASE vs control: 173%
[1]; Thalamus, Left, Control (N = 4)
  Tissue distribution volume (Vt): 2.6 ± 0.5
[1]; Thalamus, Left, KASE (N = 4), 7 days post-SE
  Tissue distribution volume (Vt): 7.0 ± 1.8
[1]; Thalamus, Right
  Increase (%) of Vt, KASE vs control: 155%
[1]; Thalamus, Right, Control (N = 4)
  Tissue distribution volume (Vt): 2.8 ± 0.5
[1]; Thalamus, Right, KASE (N = 4), 7 days post-SE
  Tissue distribution volume (Vt): 7.1 ± 1.4
[2]
  Stability in whole rat blood: not further metabolised in vitro in whole rat blood

From article PMC3570346, “PET imaging of brain inflammation during early epileptogenesis in a rat model of temporal lobe epilepsy” (EJNMMI Research, 2012)
